Experimental data reported in patent publication US20250000843A1, “LIGNAN-INSPIRED COMPOUNDS, METHODS OF MAKING, AND USING THEREOF” (IOWAIBO, INC., priority 2023, published 2025).

Tests used:
telomerase [1] = biological target: T1, telomerase (Homo sapiens, UniProt O14746); test: Q-TRAP telomerase activity in MCF7 breast cancer cells; format: cell-based; parameters: allow the enzymatic addition of telomeric DNA repeats by endogenous telomerase; endogenous in cells
telomerase [2] = biological target: T1, telomerase; test: Q-TRAP telomerase activity in PC3 prostate cancer cells; format: cell-based; parameters: allow the enzymatic addition of telomeric DNA repeats by endogenous telomerase; endogenous in cells; host or cells: PC3 prostate cancer cells (protein extract of lysed cell pellets); key to Significance of RTA difference vs. control: No: non-significant; Yes (*): p < 0.05; Yes (**): p < 0.01; Yes (***): p < 0.001; Yes (****): p < 0.0001
Protocol: The general mechanism of the Q-TRAP technique involves cellular pellets being lysed for protein extraction which is then subsequently quantified and stored under specific conditions to avoid protein degradation. Protein obtained in the process was used within 72 hours and samples were stored at 4° C. Telomerase protein extracts are then incubated with a specific oligonucleotide substrate to allow the enzymatic addition of telomeric DNA repeats by endogenous telomerase. Following the enzymatic reaction, telomerase extension products are then amplified and quantified by real-time qPCR. In real time PCR, a positive reaction is detected by accumulation of a fluorescent signal. The Ct (cycle threshold) is defined as the number of cycles required for fluorescence to cross the threshold (i.e.: exceeds background levels). […] Data are reported as relative telomerase activity (RTA). […] Telomeric repeat amplification protocol (TRAP) was modified for quantitative real-time PCR (Q-TRAP) and was used to determine the effect of dibenzyl butyl lactone derivative on telomerase activity in prostate cancer cell. The same methods as used in Example 3 were employed. The same abbreviation scheme as presented in Table 7 is used throughout this example as well.

T1 sequence (O14746 whole entry): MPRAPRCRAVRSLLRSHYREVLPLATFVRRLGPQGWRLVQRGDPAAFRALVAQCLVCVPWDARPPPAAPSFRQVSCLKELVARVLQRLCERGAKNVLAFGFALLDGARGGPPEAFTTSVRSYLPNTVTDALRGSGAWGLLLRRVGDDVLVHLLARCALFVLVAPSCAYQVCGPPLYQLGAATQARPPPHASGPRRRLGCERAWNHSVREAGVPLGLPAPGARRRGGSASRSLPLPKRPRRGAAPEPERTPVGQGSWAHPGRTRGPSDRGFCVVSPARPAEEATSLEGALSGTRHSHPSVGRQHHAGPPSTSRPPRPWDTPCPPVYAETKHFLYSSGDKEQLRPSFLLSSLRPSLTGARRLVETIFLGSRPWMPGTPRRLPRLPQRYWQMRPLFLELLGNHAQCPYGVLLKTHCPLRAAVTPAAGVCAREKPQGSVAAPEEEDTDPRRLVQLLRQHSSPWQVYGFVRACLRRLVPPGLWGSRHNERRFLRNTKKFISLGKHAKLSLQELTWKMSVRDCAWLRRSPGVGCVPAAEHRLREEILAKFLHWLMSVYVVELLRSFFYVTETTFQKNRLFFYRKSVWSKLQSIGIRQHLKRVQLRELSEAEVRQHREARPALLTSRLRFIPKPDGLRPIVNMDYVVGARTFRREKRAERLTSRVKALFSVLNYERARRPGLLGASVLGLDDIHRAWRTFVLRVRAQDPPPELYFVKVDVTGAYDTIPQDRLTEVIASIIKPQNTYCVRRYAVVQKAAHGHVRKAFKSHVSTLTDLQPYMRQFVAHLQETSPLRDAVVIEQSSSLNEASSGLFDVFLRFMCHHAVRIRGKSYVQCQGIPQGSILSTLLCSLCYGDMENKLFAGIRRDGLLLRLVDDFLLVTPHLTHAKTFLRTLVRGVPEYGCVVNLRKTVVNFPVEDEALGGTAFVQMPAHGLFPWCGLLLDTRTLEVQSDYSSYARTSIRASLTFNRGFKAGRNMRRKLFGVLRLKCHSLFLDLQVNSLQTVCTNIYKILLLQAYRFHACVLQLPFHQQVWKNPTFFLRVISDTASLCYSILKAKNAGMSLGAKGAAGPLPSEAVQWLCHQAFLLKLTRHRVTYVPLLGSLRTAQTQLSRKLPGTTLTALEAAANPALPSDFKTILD
T1 sequence (O60832 whole entry partner): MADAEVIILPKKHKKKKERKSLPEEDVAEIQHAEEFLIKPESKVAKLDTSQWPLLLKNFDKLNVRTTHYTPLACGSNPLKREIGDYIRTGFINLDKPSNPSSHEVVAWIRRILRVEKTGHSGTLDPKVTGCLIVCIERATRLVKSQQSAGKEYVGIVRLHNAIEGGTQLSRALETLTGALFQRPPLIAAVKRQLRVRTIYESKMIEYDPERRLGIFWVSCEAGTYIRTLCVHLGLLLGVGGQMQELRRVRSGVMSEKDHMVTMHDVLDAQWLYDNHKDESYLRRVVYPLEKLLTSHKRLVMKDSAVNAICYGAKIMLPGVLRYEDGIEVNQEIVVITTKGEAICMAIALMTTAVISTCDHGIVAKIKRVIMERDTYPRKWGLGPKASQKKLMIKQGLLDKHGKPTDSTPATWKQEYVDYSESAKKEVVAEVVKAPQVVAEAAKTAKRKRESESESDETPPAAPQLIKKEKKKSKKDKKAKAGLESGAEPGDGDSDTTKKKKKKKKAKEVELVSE
T1 sequence (Q9NPE3 whole entry partner): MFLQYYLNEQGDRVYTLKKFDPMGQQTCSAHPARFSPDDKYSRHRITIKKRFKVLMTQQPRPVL
T1 sequence (Q9NX24 whole entry partner): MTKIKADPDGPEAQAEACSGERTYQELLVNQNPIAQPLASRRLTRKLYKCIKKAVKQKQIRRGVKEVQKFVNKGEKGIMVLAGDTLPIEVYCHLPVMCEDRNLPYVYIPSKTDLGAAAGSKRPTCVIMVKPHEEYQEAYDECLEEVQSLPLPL
T1 sequence (Q9NY12 whole entry partner): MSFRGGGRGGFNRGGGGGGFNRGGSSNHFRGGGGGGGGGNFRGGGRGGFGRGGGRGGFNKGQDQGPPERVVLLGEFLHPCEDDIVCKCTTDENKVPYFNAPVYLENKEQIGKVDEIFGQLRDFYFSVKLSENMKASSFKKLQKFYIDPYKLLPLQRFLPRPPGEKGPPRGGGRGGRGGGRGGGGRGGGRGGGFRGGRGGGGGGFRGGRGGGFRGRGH
T1 sequence (Q9BUR4 whole entry partner): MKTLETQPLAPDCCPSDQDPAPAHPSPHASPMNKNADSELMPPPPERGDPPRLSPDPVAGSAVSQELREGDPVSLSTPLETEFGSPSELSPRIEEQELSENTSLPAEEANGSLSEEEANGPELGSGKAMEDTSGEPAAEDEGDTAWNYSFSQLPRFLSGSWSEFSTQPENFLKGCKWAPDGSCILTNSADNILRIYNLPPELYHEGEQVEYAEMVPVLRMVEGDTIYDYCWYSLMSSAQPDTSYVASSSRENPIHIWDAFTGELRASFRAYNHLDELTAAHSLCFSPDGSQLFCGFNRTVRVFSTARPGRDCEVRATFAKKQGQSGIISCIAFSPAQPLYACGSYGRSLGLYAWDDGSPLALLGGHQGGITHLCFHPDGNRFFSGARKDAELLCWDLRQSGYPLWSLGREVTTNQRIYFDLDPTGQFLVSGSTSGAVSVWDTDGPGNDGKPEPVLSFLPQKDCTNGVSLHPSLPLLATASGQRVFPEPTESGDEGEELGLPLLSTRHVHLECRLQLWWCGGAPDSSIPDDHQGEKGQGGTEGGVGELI

O=C1OCC(Cc2ccc3c(c2)OCO3)/C1=C\c1cccc(O)c1 (single isomer, unassigned) [Enantiomer B, 3-[(3,4-dimethoxyphenyl)cyclopentyl], 4-[(3-hydroxyphenol)methyl]oxolan-2-one]
Telomerase Activity RTA (%) (telomerase [1]; MCF7, 2.5 μM, 24 Hours): 47.79% | Telomerase Activity RTA (%) (telomerase [1]; MCF7, 2.5 μM, 48 Hours): 23.71% | Telomerase Activity RTA (%) (telomerase [1]; MCF7, 2.5 μM, 72 Hours): 15.49% | Telomerase Activity RTA (%) (telomerase [1]; MCF7, 5 μM, 24 Hours): 48.30% | Telomerase Activity RTA (%) (telomerase [1]; MCF7, 5 μM, 48 Hours): 31.70% | Telomerase Activity RTA (%) (telomerase [1]; MCF7, 5 μM, 72 Hours): 14.68% | Telomerase Activity RTA (%) (telomerase [1]; MCF7, 10 μM, 24 Hours): 59.90% | Telomerase Activity RTA (%) (telomerase [1]; MCF7, 10 μM, 48 Hours): 32.76% | Telomerase Activity RTA (%) (telomerase [1]; MCF7, 10 μM, 72 Hours): 16.26% | Telomerase Activity RTA (%) (telomerase [1]; MCF7, 20 μM, 24 Hours): 44.48% | Telomerase Activity RTA (%) (telomerase [1]; MCF7, 20 μM, 48 Hours): 44.82% | Telomerase Activity RTA (%) (telomerase [1]; MCF7, 20 μM, 72 Hours): 16.69% | Telomerase Activity RTA (%) (telomerase [1]; MCF7, 40 μM, 24 Hours): 53.63% | Telomerase Activity RTA (%) (telomerase [1]; MCF7, 40 μM, 48 Hours): 26.82% | Telomerase Activity RTA (%) (telomerase [1]; MCF7, 40 μM, 72 Hours): 10.17% | IC50 (telomerase [1]; MCF7, 24 h): > 40 µM | telomerase activity levels of treated groups compared to control (telomerase [1]; MCF7, 24 hours): lower telomerase activity levels compared to control | Significance of RTA difference vs. control (telomerase [1]; MCF7, 24 hours, 5 μM): YES (*) | Significance of RTA difference vs. control (telomerase [1]; MCF7, 24 hours, 10 μM): YES (*) | Significance of RTA difference vs. control (telomerase [1]; MCF7, 24 hours, 20 μM): YES (*) | Significance of RTA difference vs. control (telomerase [1]; MCF7, 24 hours, 40 μM): YES (*) | IC50 (telomerase [1]; MCF7, 48 h): 5.17 µM | telomerase activity levels of treated groups compared to control (telomerase [1]; MCF7, 48 hours): lower telomerase activity levels compared to control, even more pronounced than 24 hours | Significance of RTA difference vs. control (telomerase [1]; MCF7, 48 hours, 2.5 μM): YES (*) | Significance of RTA difference vs. control (telomerase [1]; MCF7, 48 hours, 10 μM): YES (*) | Significance of RTA difference vs. control (telomerase [1]; MCF7, 48 hours, 40 μM): YES (*) | IC50 (telomerase [1]; MCF7, 72 h): > 40 µM | telomerase activity levels of treated groups compared to control (telomerase [1]; MCF7, 72 hours): the group treated with the highest concentration presented lower RTA levels | Significance of RTA difference vs. control (telomerase [1]; MCF7, 72 hours, 2.5 μM): YES (*) | telomerase inhibition effect (telomerase [1]; MCF7 breast cancer cells): exhibit a telomerase inhibition effect | Telomerase Activity RTA (%) (telomerase [2]; PC3, 2.5 μM, 24 Hours): 48.73% | Telomerase Activity RTA (%) (telomerase [2]; PC3, 2.5 μM, 48 Hours): 126.77% | Telomerase Activity RTA (%) (telomerase [2]; PC3, 2.5 μM, 72 Hours): 13.05% | Telomerase Activity RTA (%) (telomerase [2]; PC3, 5 μM, 24 Hours): 36.48% | Telomerase Activity RTA (%) (telomerase [2]; PC3, 5 μM, 48 Hours): 112.17% | Telomerase Activity RTA (%) (telomerase [2]; PC3, 5 μM, 72 Hours): 11.67% | Telomerase Activity RTA (%) (telomerase [2]; PC3, 10 μM, 24 Hours): 23.87% | Telomerase Activity RTA (%) (telomerase [2]; PC3, 10 μM, 48 Hours): 102.96% | Telomerase Activity RTA (%) (telomerase [2]; PC3, 10 μM, 72 Hours): 12.58% | Telomerase Activity RTA (%) (telomerase [2]; PC3, 20 μM, 24 Hours): 31.05% | Telomerase Activity RTA (%) (telomerase [2]; PC3, 20 μM, 48 Hours): 154.17% | Telomerase Activity RTA (%) (telomerase [2]; PC3, 20 μM, 72 Hours): 7.53% | Telomerase Activity RTA (%) (telomerase [2]; PC3, 40 μM, 24 Hours): 14.44% | Telomerase Activity RTA (%) (telomerase [2]; PC3, 40 μM, 48 Hours): 128.83% | Telomerase Activity RTA (%) (telomerase [2]; PC3, 40 μM, 72 Hours): 13.49% | IC50 (telomerase [2]; PC3, 24 h): 2.99 µM | telomerase activity levels of treated groups compared to control (telomerase [2]; PC3, 24 hours): lower telomerase activity levels compared to control | Significance of RTA difference vs. control (telomerase [2]; PC3, 24 hours, 2.5 μM): Yes (*) (Yes (*): p < 0.05) | Significance of RTA difference vs. control (telomerase [2]; PC3, 24 hours, 5 μM): Yes (**) (Yes (**): p < 0.01) | Significance of RTA difference vs. control (telomerase [2]; PC3, 24 hours, 10 μM): Yes (**) (Yes (**): p < 0.01) | Significance of RTA difference vs. control (telomerase [2]; PC3, 24 hours, 20 μM): Yes (**) (Yes (**): p < 0.01) | Significance of RTA difference vs. control (telomerase [2]; PC3, 24 hours, 40 μM): Yes (***) (Yes (***): p < 0.001) | IC50 (telomerase [2]; PC3, 48 h): 15.4 µM | telomerase activity levels of treated groups compared to control (telomerase [2]; PC3, 48 hours): the differences were not found to be significant | Significance of RTA difference vs. control (telomerase [2]; PC3, 48 hours, 2.5 μM): No | Significance of RTA difference vs. control (telomerase [2]; PC3, 48 hours, 5 μM): No | Significance of RTA difference vs. control (telomerase [2]; PC3, 48 hours, 10 μM): No | Significance of RTA difference vs. control (telomerase [2]; PC3, 48 hours, 20 μM): No | Significance of RTA difference vs. control (telomerase [2]; PC3, 48 hours, 40 μM): No | IC50 (telomerase [2]; PC3, 72 h): 2.38 µM | telomerase activity levels of treated groups compared to control (telomerase [2]; PC3, 72 hours): without any particular differences between the treated and control groups | Significance of RTA difference vs. control (telomerase [2]; PC3, 72 hours, 2.5 μM): No | Significance of RTA difference vs. control (telomerase [2]; PC3, 72 hours, 5 μM): No | Significance of RTA difference vs. control (telomerase [2]; PC3, 72 hours, 10 μM): No | Significance of RTA difference vs. control (telomerase [2]; PC3, 72 hours, 20 μM): Yes (*) (Yes (*): p < 0.05) | Significance of RTA difference vs. control (telomerase [2]; PC3, 72 hours, 40 μM): No | telomerase inhibition effect (telomerase [2]; PC3 prostate cancer cell line): exhibits a telomerase inhibition effect at 24 hours
